The values that follow come from patent US3963707A, “Novel N-nitroso compounds, compositions containing such compounds, processes for their preparation and methods of treatment therewith, and novel intermediates” (Aktiebolaget Leo, priority 1973, dated 1976).

Read-outs that look alike come from different tables or passages of the source. Bounds are passed on as bounds.

For series [1], the system named is utering weight. Put plainly: Estrogenic effect in immature female mice. Format: in vivo. The conditions noted are these: for estrogenic activity, 17β-estradiol and its 3-acetate compared with each other: same kind of experiment. On the procedure:
(§1) The androgenic and estrogenic activities, as described below, are determined with established methods (see e.g. Dorfman, R.: Methods in Hormone Research, vol. II, Acad. Press, New York and London 1962, pp. 93 and 275).
The estrogenic effect is assayed in immature female mice. The animals receive the compounds once daily for three consecutive days, and on the 4th day the utering weight is determined.

Series [2] relates to Walker 256. The conditions noted are these: result in words; cited from earlier work.
Series [3] deals with lymphoid leukemia (L 1210). Conditions: result in words; cited from earlier work.
For series [4] the following is noted: acute intraperitoneal toxicity in mice; cited from earlier work.
The subject of series [5] is Adenocarcinoma 755. The conditions noted are these: result in words; cited from earlier work.
In series [6] the test system is Sarcoma 180. The conditions noted are these: result in words; cited from earlier work.
In series [7] the test system is ventral prostate. Conditions: as reported in the literature; cited from earlier work.
In series [8] the test system is ventral prostate. The series can be described thus: Androgenic effect in castrated male rats. Format: in vivo. Conditions: subcutanous and intraperitoneal administration, 7 days. On the procedure:
as §1
The androgenic effect is assayed in castrated male rats. Beginning two weeks after castration the animals are given one daily injection of the compound for 7 days. The weight of the ventral prostate is determined on the 8th day.

Series [9] has as its system Hepatoma AH 130. The series can be described thus: animal or person. On the set-up: species or system SPF Wistar rats. The conditions noted are these: for ED50: Rattus norvegicus, ip, 192 h, one injection i.p. day after implantation, dose causing 50 percent reduction of tumour size; for T.I. (LD50/ED50): Hepatoma AH 130, rats, i.p.; for anti-tumor activity: additional compounds, result in words. In outline: (§2)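 SPF Wistar rats were implanted i.p. with 5 × 10^6 AH 130 cells and given one i.p. dose the next day. On day 8 they were killed and tumour weights were compared with controls. ED50 is the dose halving tumour size, LD50 the 50% lethal dose, and T.I. is LD50/ED50.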

Series [10] in a line: in vivo. Conditions: rat, in vivo, ip; one injection i.p., rats; dose causing 50 percent lethality. On the set-up: species or system SPF Wistar rats. In outline: as §2
For series [11], the system named is Lymphatic leukemia L 1210. The series can be described thus: Lymphatic leukemia L 1210 test. The series is classed as in vivo, CDF1 (C3H×DBA/2)F1 mice. The conditions noted are these: for Effect %: survival time as percentage of control; for Weight change v: vs control up to the 5th day; for effect on L 1210: result in words, dose not given. The source says: (§3) The experimental design and the interpretation of the results have been in accordance with the standards set by the CCNSC (Cancer Chemotherapy Reports, January 1959 and December 1962), and by the DR&D (Cancer Chemotherapy Reports, September 1972, Vol. 3, No. 2).
(§4) The way of administration is by the intraperitoneal route (i.p.) in each case.
Lymphatic leukemia L 1210
Experimental animals: CDF1 (C3H×DBA/2)F1 mice.
Tumour implant: 10^5 tumour cells i.p.
Therapy: One injection i.p. on the day following implantation.
Evaluation: a) The survival time of the test animals (t) expressed as the percentage of that of control animals (c).
b. Weight change in the test animals (T) compared with that of the control animals (c) up to the 5th day.
c. The mortality rate must not exceed 35% in the test animals on the 5th day of therapy.

For series [12], the system named is Ehrlich ascites tumour, ELD hyperdiploid (46 chromosomes). The series can be described thus: Ehrlich ascites tumour test (LD50, ED50, therapeutic index). The series is classed as in vivo, SPF NMRI mice. Conditions: for anti-tumor activity: additional compounds, result in words. A digest of the protocol: (§5)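 SPF NMRI mice implanted i.p. with 2 × 10^6 Ehrlich ascites (ELD hyperdiploid) cells and given a single i.p. dose the next day; killed on day 8. ED50 = dose halving tumour weight versus controls, LD50 = dose lethal to 50%; T.I. = LD50/ED50.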

Experiment in series [13]: as above
The series is classed as in vivo, SPF NMRI mice. Conditions: mouse, in vivo, ip; one injection i.p., mice; dose causing 50 percent lethality. In outline:
as §5

Series [14] concerns Walker carcinosarcoma 256. The series can be described thus: Walker carcinosarcoma 256 test. Format: in vivo, Sprague Dawley rats. Conditions: 5×250 mg/kg i.p.; for Lethality: died/used animals.
From the text: as §3, §4
Walker carcinosarcoma 256
Experimental animals: Sprague Dawley rats.
Tumour implant: Tumour pieces with 2-4 mm diameter, subcutaneously.
Therapy: Daily injections i.p. for 5 days starting on the day following implantation.
Termination: The animals are killed on the 9th day.
Evaluation: Weights of tumours of test animals are compared with those of control animals. The differences, in per cent of weights of tumours of control animals, give per cent tumour inhibition.
The lethality is given as the number of animals which died in the experiment/the number of animals used in the experiments.

Series [15] is described as follows: Progestational activity in the Clanberg test. Conditions: standard scale of McPhail. The series is classed as in vivo.
The nature of series [16]: Thymolytic effect according to A. C. Hilger (assay 8). Conditions: in vivo. The source says: Thymolytic effect according to A. C.

Consider `C[C@]12CC[C@@H]3c4ccc(O)cc4CC[C@H]3[C@@H]1CC[C@@H]2O` [17β-estradiol, estra-1,3,5(10)-triene-3,17β-diol], for which the “estrogenic activity, 17β-estradiol and its 3-acetate compared with each other” value in series [1] is on record as “about the same estrogenic activity”.
Take `CC(=O)Oc1ccc2c(c1)CC[C@@H]1[C@@H]2CC[C@]2(C)[C@@H](O)CC[C@@H]12` [17β-estradiol-3-acetate]: the “estrogenic activity, 17β-estradiol and its 3-acetate compared with each other” value in series [1] is listed as “about the same estrogenic activity”.
Take `CC(C)COC(=O)N(CCCl)N=O` [(CH3)2 CHCH2 --]: the “activity against Walker 256” value in series [2] is “inactive”. For the same compound, in series [3], the “activity against lymphoid leukemia (L 1210)” value is “inactive”. The LD50 in series [4] is listed as 7 mg/kg.
For `CCOC(=O)N(CCCl)N=O` [C2 H5 --], the “activity against Adenocarcinoma 755” value in series [5] was “inactive”. For the same compound, the “activity against Sarcoma 180” value in [6] is “inactive”. Moreover, the “activity against lymphoid leukemia (L 1210)” value in series [3] was “inactive”. The LD50 in series [4] was 2 mg/kg.
For `C[C@]12CC[C@H](O)CC1=CC[C@@H]1[C@@H]2CC[C@]2(C)C(=O)CC[C@@H]12` [dehydroepiandrosterone, androst-5-en-3β-ol-17-one], in [7], the “androgenic effect compared with testosterone” value is given as “weaker androgenic effect”.
`C[C@]12CC[C@H](OC(=O)N(CCCl)N=O)CC1=CC[C@@H]1[C@@H]2CC[C@]2(C)C(=O)CC[C@@H]12` [dehydroepiandrosterone-3β-N-(2-chloroethyl)-N-nitroso carbamate]: in [8], the “androgenic effect compared with testosterone” value is “somewhat weaker androgenic effect”. Also, in series [9], it took a dose of 0.4 mg/kg to reach the 50% effect level (ED50). In addition, the LD50 in [10] is more than 1000 mg/kg. In [11] (1×500 mg/kg i.p.), the Mortality was 0/40, the Effect % amounted to 143% and the Weight change v is on record as -2.5 g. Also, the “T.I. (LD50/ED50)” value in series [12] (Ehrlich ascites, mice, i.p.) is given as more than 102. For the same compound, the ED50 in series [12] (Mus musculus, Ehrlich, ip, one injection i.p. day after implantation, dose causing 50 percent reduction of tumour size, read-out: ED50) amounted to 98 mg/kg. This compound also returned an LD50 in [13] of more than 1000 mg/kg. For the same compound, in [14], the Tumour inhibition % is recorded as 66% and the Lethality is given as 0/16.
With `CC(=O)Oc1ccc2c(c1)CC[C@@H]1[C@@H]2CC[C@]2(C)[C@@H](OC(=O)N(CCCl)N=O)CC[C@@H]12` [estradiol-3-acetate-17β-N-(2-chloroethyl)-N-nitroso carbamate], in series [9], the “T.I. (LD50/ED50)” value was more than 10 and the ED50 stood at 96 mg/kg. Besides, the LD50 in series [10] is more than 1000 mg/kg. Besides, the “estrogenic effect compared with 17β-estradiol and 17β-estradiol-3-acetate” value in [1] (given orally, subcutanously or intraperitoneally) was “about 10 times weaker”. In addition, the anti-tumor activity entry in [12] is on record as “exhibit anti-tumor activity”. Further, in [14], the Tumour inhibition % amounted to 74% and the Lethality is on record as 1/8.
For `C#C[C@]1(OC(C)=O)CC[C@H]2[C@@H]3CCC4=C[C@@H](OC(=O)N(C(=O)N(CCCl)N=O)C5CCCCC5)CC[C@@H]4[C@H]3CC[C@@]21C` [ethynodiol-17β-acetate-3β-/N^2-cyclohexyl-N^4-(2-chloroethyl)-N^4-nitroso allophanate/], the anti-tumor activity entry in [9] and in series [12] was “exhibit anti-tumor activity” throughout. In addition, the “progestational activity compared with ethynodiol-3,17-diacetate” value in series [15] was “about half that of ethynodiol-3,17 -diacetate”.
With `C#C[C@]1(OC(C)=O)CC[C@H]2[C@@H]3CCC4=C[C@@H](OC(=O)N(CCCl)N=O)CC[C@@H]4[C@H]3CC[C@@]21C` [ethynodiol-17β-acetate-3β-N-(2-chloroethyl)-N-nitroso carbamate], the anti-tumor activity entry in series [9] and in series [12] was “exhibit anti-tumor activity” throughout. In addition, the “progestational activity compared with ethynodiol-3,17-diacetate” value in series [15] is reported as “about half that of ethynodiol-3,17 -diacetate”.
Take `C[C@]12C=CC(=O)C=C1CC[C@@H]1[C@@H]2[C@@H](O)C[C@@]2(C)[C@H]1CC[C@]2(O)C(=O)COC(=O)N(CCCl)C(=O)N(CCCl)N=O` [prednisolone-21-/N^2,N^4-bis (2-chloroethyl)-N^4-nitroso allophanate/]: the anti-tumor activity entry in series [9] and in series [12] was “exhibit anti-tumor activity” in each case. For the same compound, in series [11], the “effect on L 1210” value is reported as “show a significant effect”. Moreover, the “thymolytic activity compared with prednisolone acetate” value in series [16] is “about the same activity as prednisolone acetate”.
As for `C[C@]12C=CC(=O)C=C1CC[C@@H]1[C@@H]2[C@@H](O)C[C@@]2(C)[C@H]1CC[C@]2(O)C(=O)COC(=O)N(CCCl)N=O` [prednisolone-21-N-(2-chloroethyl)-N-nitroso carbamate], the anti-tumor activity result in series [9] and in series [12] was “exhibit anti-tumor activity” in each case. Besides, the “effect on L 1210” value in [11] is “show a significant effect”. Moreover, the “thymolytic activity compared with prednisolone acetate” value in series [16] is listed as “about the same activity as prednisolone acetate”.
With `C[C@]12CC[C@H]3[C@@H](CCC4=CC(=O)CC[C@@]43C)[C@@H]1CC[C@@H]2OC(=O)N(CCCl)N=O` [testosterone-17β-N-(2-chloroethyl)-N-nitroso carbamate], in series [8], the “androgenic effect compared with testosterone” value is on record as “about the same androgenic effect as testosterone”. In [9], the “T.I. (LD50/ED50)” value is recorded as more than 100 and the ED50 was 8 mg/kg. The compound further gave an LD50 in series [10] of more than 1000 mg/kg. In series [11] (1×125 mg/kg i.p.), the Mortality is reported as 0/40, the Effect % is given as 125% and the Weight change v is reported as -1.8 g. The anti-tumor activity entry in series [12] is “exhibit anti-tumor activity”. In series [14], the Tumour inhibition % came to 64% and the Lethality is listed as 0/8.

By LD50 is commonly meant the dose at which mortality reaches 50%. In general, ED50 refers to the dose at which the effect has come halfway, by size or by number of responders.
